# Literature values in publication PMC3853759 (International Journal of Pharmaceutical Investigation, 2013).
smiles,measurement,setting,value
"[Zn] [Zn, Zinc]",oral Zn dose producing acute toxicity,rats,237 to 623 mg/kg
same,oral Zn dose producing acute toxicity,mice,86 to 605 mg/kg
